This note sets out measurements from US12617771B2, “Diphenylpyrazole compound, and preparation method therefor and application thereof” (NORTHWEST A&F UNIVERSITY, priority 2021, dated 2026).

Broadly, the IC50 is the concentration that gives 50% inhibition. Low values mean greater potency in that assay, high ones weaker potency in that assay. One may read the inhibition as the drop in the measured response relative to a control, in per cent.

What all share (type): biochemical
For experiment [1], the target named is Plutella xylostella GSTs. The experiment can be described thus: Inhibition of total GSTs enzyme of Plutella xylostella (CDNB method). How it is done:
(§1) Experiment: About 50 mg of larvae/nymphs of nine major pests such as Plutella xylostella, Mythimna separata, Pyrausta nubilalis, Chilo suppressalis, Nilaparvata lugens, Spodoptera frugiperda, Helicoverpa armigera, Carposina sasakii, Spodoptera litura were taken, grounded in a mortar pre-cooled at −80° C., and then 1 mL of 100 mM sodium phosphate buffer (1 mM EDTA, pH 7.2) was added and fully homogenized. The homogenate was transferred to a 1.5 mL centrifuge tube at 4° C., and centrifuged at 14,000 g for 30 minutes, and the supernatant was transferred to a new centrifuge tube as the GSTs total enzyme. The protein concentrations of the above total enzymes were determined using the BCA method.
(§2) 100 μL of PBS buffer (100 mM, pH 7.2) containing 1 mM GSH was taken and placed in a 96-well plate, 5 μg of insect total GSTs enzymes and an appropriate concentration of compounds PXG1-PXG29 (29 compounds) of the present invention were added to each well, after uniformly mixing, and allowed to stand at 30° C. for 10 min. Then 100 μL of PBS buffer (100 mM, pH 7.2) containing 1 mM CDNB was added to each well. Immediately after mixing, the mixture was placed in a microplate reader to measure the absorbance at a wavelength of 340 nm (A 340) once every 1 min, the measurement was carried out continuously for 5 min, the light absorption values of each measuring point were recorded and the inhibition rate in vitro of the compounds with different concentrations against insects total GSTs enzymes were calculated. Each group of assays was repeated three times, and total GSTs enzymes inactivated at 100° C. for 5 min were used as negative controls, and GTX was used as positive controls. GraphPad Prism 5 software was used for analysis and calculation of IC50. Relative inhibition was calculated using the following formula:
(§3) [formula] • wherein, A340 is the change of A340 within 5 minutes for the control group, and A340t is the change of A340 within 5 minutes for the experimental group.

Experiment [2] has as its target Carposina sasakii GSTs. The experiment is described as follows: Inhibition of total GSTs enzyme of Carposina sasakii (CDNB method). As for the experimental part: as §1, §2, §3
For experiment [3], the target named is Spodoptera litura GSTs. The experiment can be described thus: Inhibition of total GSTs enzyme of Spodoptera litura (CDNB method). As for the experimental part: as §1, §2, §3
The target in experiment [4] is Mythimna separata GSTs. The experiment can be described thus: Inhibition of total GSTs enzyme of Mythimna separata (CDNB method). As for the experimental part:
as §1, §2, §3

Experiment [5] addresses Pyrausta nubilalis GSTs. The experiment is described as follows: Inhibition of total GSTs enzyme of Pyrausta nubilalis (CDNB method). As for the experimental part:
as §1, §2, §3

Experiment [6] has as its target Chilo suppressalis GSTs. The experiment can be described thus: Inhibition of total GSTs enzyme of Chilo suppressalis (CDNB method). How it is done: as §1, §2, §3
The target in experiment [7] is Nilaparvata lugens GSTs. The experiment is described as follows: Inhibition of total GSTs enzyme of Nilaparvata lugens (CDNB method). As for the experimental part:
as §1, §2, §3

The target of experiment [8] is Spodoptera frugiperda GSTs. The experiment can be described thus: Inhibition of total GSTs enzyme of Spodoptera frugiperda (CDNB method). How it is done:
as §1, §2, §3

The target of experiment [9] is Helicoverpa armigera GSTs. The experiment can be described thus: Inhibition of total GSTs enzyme of Helicoverpa armigera (CDNB method). How it is done:
as §1, §2, §3

The target in experiment [10] is PxGSTδ1 (Plutella xylostella, UniProt D7URW9). The experiment is described as follows: Inhibition of PxGSTδ1 recombinant protein. The following applies: read-out: 100 μM Inhibition rate %. How it is done: (§4) Experiment: 100 μL of PBS buffer (100 mM, pH 7.2) was taken and added to a 96-well plate, 1 μg of PxGSTs recombinant protein and an appropriate concentration of the compounds PXG1-PXG29 of the present invention were added to each well, after uniformly mixing, and allowed to stand at 30° C. for 10 min. Then 100 μL of PBS buffer (100 mM, pH 7.2) containing 1 mM CDNB and 1 mM GSH was successively added to each well. Immediately after mixing, the mixture was placed in a microplate reader to measure the absorbance at a wavelength of 340 nm (A340) once every 1 min, the measurement was continued for 5 min, the light absorption values of each measuring point were recorded and the inhibition rate in vitro of the compounds PXG1-PXG29 of the present invention with different concentrations against PxGSTs recombinant protein were calculated. Each group of assays was repeated three times, and PxGSTs recombinant protein inactivated at 100° C. for 5 min was used as negative control, and GTX was used as positive control. GraphPad Prism 5 software was used for analysis and calculation of IC50. Relative inhibition was calculated using the following formula:
(§5) [formula] • wherein, A340c is the change of A340 […] the control group, an A340t is the change of A340 within 5 minutes for the experimental group.

For experiment [11], the target named is PxGSTσ1 (Plutella xylostella, UniProt Q6F436). The experiment is described as follows: Inhibition of PxGSTσ1 recombinant protein. To be noted: read-out: 100 μM Inhibition rate %. How it is done:
as §4, §5

The target in experiment [12] is PxGSTσ2 (Plutella xylostella, UniProt Q6F443). The experiment is described as follows: Inhibition of PxGSTσ2 recombinant protein. To be noted: read-out: 100 μM Inhibition rate %. As for the experimental part:
as §4, §5

For experiment [13], the target named is PxGSTε3 (Plutella xylostella, UniProt O77409). The experiment can be described thus: Inhibition of PxGSTε3 recombinant protein. The following applies: read-out: 100 μM Inhibition rate %. As for the experimental part: as §4, §5
Sequence of PxGSTε3 (O77409 entry or part of it): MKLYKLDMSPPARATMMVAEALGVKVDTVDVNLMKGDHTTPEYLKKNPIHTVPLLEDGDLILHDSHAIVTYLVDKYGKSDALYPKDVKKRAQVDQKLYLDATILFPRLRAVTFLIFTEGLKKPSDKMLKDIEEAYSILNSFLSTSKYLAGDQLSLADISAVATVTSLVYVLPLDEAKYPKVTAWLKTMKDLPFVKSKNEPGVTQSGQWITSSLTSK

Sequence of PxGSTσ1 (Q6F436 entry or part of it): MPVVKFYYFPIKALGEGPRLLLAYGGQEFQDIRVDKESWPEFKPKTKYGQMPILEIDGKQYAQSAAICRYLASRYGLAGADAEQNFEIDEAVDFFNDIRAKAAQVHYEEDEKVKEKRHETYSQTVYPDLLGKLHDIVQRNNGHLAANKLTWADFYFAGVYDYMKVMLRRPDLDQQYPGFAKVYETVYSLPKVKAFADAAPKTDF
Sequence of PxGSTσ2 (Q6F443 entry or part of it): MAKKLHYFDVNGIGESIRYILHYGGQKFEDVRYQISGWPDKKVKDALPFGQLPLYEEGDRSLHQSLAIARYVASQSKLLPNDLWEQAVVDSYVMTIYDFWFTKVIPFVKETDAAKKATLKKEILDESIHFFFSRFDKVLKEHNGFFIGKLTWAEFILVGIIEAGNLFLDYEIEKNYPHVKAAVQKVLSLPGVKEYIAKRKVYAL
Sequence of PxGSTδ1 (D7URW9 entry or part of it): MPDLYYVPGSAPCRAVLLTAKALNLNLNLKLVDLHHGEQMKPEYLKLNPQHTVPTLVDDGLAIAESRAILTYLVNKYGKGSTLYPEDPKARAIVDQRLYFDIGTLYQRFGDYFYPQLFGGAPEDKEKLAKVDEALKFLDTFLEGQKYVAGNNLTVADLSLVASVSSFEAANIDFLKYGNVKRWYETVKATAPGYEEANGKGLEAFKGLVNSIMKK

Consider `CC1(CCc2ccccc2)NC(=O)N(NC(=O)c2cc(-c3ccccc3)nn2-c2ccccc2)C1=O` (stereo not drawn) [PXG15, N-[4-methyl-2,5-dioxo-4-(2-phenylethyl)imidazolin-1-yl]-1,3-diphenyl-1H-pyrazol-5-yl-carboxamide], for which the IC50 in experiment [1], in [2], in experiment [3], in [4], in experiment [5] and in experiment [6] was greater than 100 µM in each case. Also, the IC50 in [7], in [8] and in experiment [9] was greater than 100 µM throughout. Besides, the “100 μM Inhibition rate %” value in [1] was 16.83%; in [2], 17.01%; in experiment [3], −5.22%; in [4], 4.29%; in experiment [5], 4.69%; in experiment [6], 18.72%. The “100 μM Inhibition rate %” value is reported as 2.97% in experiment [7], 0.41% in [8] and −1.48% in experiment [9]. Further, the inhibition at 100 µM in experiment [10] amounted to 7.86%; in experiment [11], 42.5%; in experiment [12], 25.6%; in experiment [13], 4.62%.

Consider `O=C(CC12C[C@H]3C[C@H](C1)C[C@@H](C2)C3)NNC(=O)c1cc(-c2ccccc2)nn1-c1ccccc1` [PXG26, N′-(1,3-diphenyl-1H-pyrazol-5-yl-carbonyl)-2-[(3r)-adamantan-1-yl]acetohydrazide], for which the 50% inhibitory concentration (IC50) in experiment [1], in [2], in [3], in experiment [4], in experiment [5] and in experiment [6] was greater than 100 µM throughout. The IC50 in [7], in experiment [8] and in experiment [9] was greater than 100 µM in each case. The “100 μM Inhibition rate %” value was 25.09% in experiment [1]; 18.11% in experiment [2]; 15.89% in [3]; 42.48% in [4]; −0.99% in experiment [5]; 17.07% in [6]. Besides, the “100 μM Inhibition rate %” value in experiment [7] is reported as 28.56%; in experiment [8], 16.01%; in experiment [9] it was 24.75%. For the same compound, the inhibition at 100 µM in experiment [10] turned out to be 21.6%; in [11], 67.9%; in experiment [12] it was 24.7%; in experiment [13], 7.12%.

In the case of `CN(C)S(=O)(=O)c1ccc(C(=O)NNC(=O)c2cc(-c3ccccc3)nn2-c2ccccc2)cc1` [PXG29, 4-[N′-(1,3-diphenyl-1H-pyrazol-5-yl-carbonyl) hydrazinocarbonyl]-N,N-dimethyl phenyl-1-sulfonamide], the IC50 in experiment [1], in experiment [2], in experiment [3], in experiment [4], in experiment [5] and in experiment [6] was greater than 100 µM throughout. Also, the IC50 in experiment [7], in experiment [8] and in experiment [9] was greater than 100 µM in each case. For the same compound, the “100 μM Inhibition rate %” value in experiment [1] is 9.32%; in experiment [2], 33.57%; in experiment [3], 4.60%; in [4], 4.90%; in [5], 10.83%; in [6], 13.81%. For the same compound, the entries for the “100 μM Inhibition rate %” value in experiment [7], in experiment [8] and in experiment [9] were −10.71%, 4.82% and 10.99%, respectively. In addition, the inhibition at 100 µM in [10] stood at 16.7%; in experiment [11], 53.3%; in [12], 44.7%; in experiment [13], 0.03%.

Consider `O=C(COc1ccccc1)NNC(=O)c1cc(-c2ccccc2)nn1-c1ccccc1` [PXG5, N′-(1,3-diphenyl-1H-pyrazol-5-yl-carbonyl)-2-phenoxyacetohydrazide], for which the half-maximal inhibitory concentration (IC50) in experiment [1], in [2], in experiment [3], in experiment [4], in experiment [5] and in [6] was greater than 100 µM in each case. The IC50 in experiment [7], in experiment [8] and in experiment [9] was greater than 100 µM throughout. The “100 μM Inhibition rate %” value in [1] came out at 11.58%; in experiment [2] it was 23.22%; in experiment [3] it was 37.80%; in experiment [4], 47.24%; in experiment [5], 14.08%; in [6], 28.17%. Moreover, the “100 μM Inhibition rate %” value in [7] is on record as 23.90%; in experiment [8], 31.42%; in experiment [9] it was 9.57%. Moreover, the inhibition at 100 µM in experiment [10] was 81.7%; in [11] it was 35.6%; in experiment [12] it was 24.5%; in [13], -2.97%.

With `O=C(CNc1ccccc1)NNC(=O)c1cc(-c2ccccc2)nn1-c1ccccc1` [PXG3, N′-(1,3-diphenyl-1H-pyrazol-5-yl-carbonyl)-2-(phenylamino) acetohydrazide], the half-inhibitory concentration (IC50) in experiment [1], in experiment [2], in [3], in experiment [4], in experiment [5] and in [6] was greater than 100 µM throughout. Also, the half-maximal inhibitory concentration (IC50) in [7], in experiment [8] and in experiment [9] was greater than 100 µM in each case. Besides, the “100 μM Inhibition rate %” value worked out at 25.47% in experiment [1]; 23.07% in experiment [2]; 17.09% in [3]; 42.96% in [4]; 17.35% in experiment [5]; 26.63% in experiment [6]. Also, the figures for the “100 μM Inhibition rate %” value in experiment [7], in experiment [8] and in experiment [9] were 35.05%, 35.46% and 20.74%, respectively. Besides, the inhibition at 100 µM in [10] was 72.4%; in [11], 36.1%; in experiment [12], 27.6%; in experiment [13] it was -1.11%.

For the compound `N#Cc1ccccc1OCC(=O)NNC(=O)c1cc(-c2ccccc2)nn1-c1ccccc1` [PXG23, 2-(2-cyanophenoxy)-N′-(1,3-diphenyl-1H-pyrazol-5-yl-carbonyl)acetohydrazide], the half-inhibitory concentration (IC50) in [1], in experiment [2], in [3], in [4], in experiment [5] and in experiment [6] was greater than 100 µM throughout. In addition, the half-inhibitory concentration (IC50) in [7], in [8] and in [9] was greater than 100 µM each time. In addition, the “100 μM Inhibition rate %” value in experiment [1] came to 26.35%; in experiment [2], 19.76%; in experiment [3], 12.89%; in experiment [4], 22.92%; in experiment [5], 15.55%; in experiment [6], 22.83%. In addition, the “100 μM Inhibition rate %” value in experiment [7] is given as 24.74%; in experiment [8] it was 22.33%; in experiment [9], 0.43%. For the same compound, the inhibition at 100 µM in [10] was found to be 77.7%; in experiment [11], 35.9%; in [12], 26.9%; in experiment [13], 6.04%.
